Data as given in patent publication US20230255873A1, “COSMETIC OR DERMATOLOGICAL PEPTIDE-BASED TREATMENT OF THE SKIN AND ITS INTEGUMENTS” (Sederma, priority 2020, published 2023).
The star is where a group is joined. Palmitoyl = CCCCCCCCCCCCCCCC(=O)*

Assays:
P. acnes [1] = test: P. acnes growth curve (time to OD600 nm = 0.5); type: cell-based, Propionibacterium acnes; conditions: for Time (in hour) to reach OD600 nm = 0.5: vehicle 42-44 h
Description: 1—P. acnes growth curve (same protocol as described above at point 1.4)
P. acnes is thawed and grown over 3 days in M20 media. Then, optical density at 600 nm (OD600) is measured and 2×10^6 CFU*/mL are plated in well plates. P. acnes is then treated with 6 ppm, 9 ppm and 12 ppm of peptides. To follow bacterial cell multiplication, OD600 is measured regularly for about 1 week. […] Statistical evaluations are performed on results using a Student t test. Two independent experiments are performed (N=2).

[2] = tested on: HaCaT (human keratinocyte line); test: ELISA assay of hyaluronic acid on HaCaT culture; type: cell-based; conditions: 72 hours of contact
Description: This same type of test was carried out on a HaCaT culture (human keratinocyte line), but without the irradiation step, with a contact time of 72 hours between the cells and the peptide of the invention and an ELISA assay of hyaluronic acid on the culture medium.

[3] = tested on: P. acnes (strain ATCC6919); test: Adhesion of P. acnes to a surface; type: cell-based, Propionibacterium acnes; conditions: 48 hours and 72 hours, two concentrations tested
Excerpt: […] At the end of the contact plus more or less the peptide, the quantity of isolated cells, not attached, was estimated by an OD at 600 nm.

HaCaTs = test: Scratch test on HaCaTs (keratinocyte migration, with or without P. acnes); type: cell-based, human; conditions: 24 hours after injury
Description: 1.5—Scratch Test on HaCaTs
Principle: HaCats are inoculated in a 6-well plate in a suitable medium until confluence. 24-hour contact with the peptide according to the invention (test cases) or its excipient (control case) in the culture medium is then carried out. After this first step, wounds are made on the cell layers in the experimental wells (with a dedicated tool to make reproducible and small wounds); two wells per case are dedicated to cell counting; rinsing with PBS and an addition of culture medium with or without the peptide according to the invention depending on the case, in the presence or absence of Propionibacterium acnes (100 bacteria for 1 HaCaT cell) are carried out. Photos are taken (to calculate the area of the wound at T0 over a specific area). The cultures are stopped after 24 hours of incubation and photos are taken on the same areas as at T0. A photo processing software (Image J) can calculate for each case the area at T0 and the area recolonized by cells, 24 hours after injury, and establish a ratio.

P. acnes [4] = test: Biofilm stability of P. acnes (peptide added 24 hours after start of culture); type: cell-based, Propionibacterium acnes; conditions: peptide added 24 hours after the start of the culture
Description: The effect of the peptide on the biofilm stability was also evaluated, the peptide being only added 24 hours after the start of the P. acnes culture.

P. acnes [5] = test: Persistent effect on P. acnes growth after removal of the peptide; type: cell-based, Propionibacterium acnes; conditions: 48 hours of contact, then fresh medium without peptide
Description: This study was also carried out to follow the persistent effect of the peptide according to the invention on P. acnes, and to see if the inhibition can be quickly lifted in the absence of the peptide. The peptide was brought into contact with the cells from the start, as before. After 48 hours of contact and evaluation of the quantity of cells, the cells of all the cases were centrifuged and returned to a fresh medium without solvent or peptide, all the cases having the same quantity of cells. The growth was then assessed again.

[6] = tested on: P. acnes (strain ATCC6919); test: Biofilm formation of P. acnes (crystal violet); type: cell-based, Propionibacterium acnes; conditions: 3 days
Description: The adhesion of 10^6 CFU/mL of P. acnes (strain ATCC6919) to a surface for 72 hours in an appropriate medium was evaluated. At the end of the contact plus more or less the peptide, the quantity of isolated cells, not attached, was estimated by an OD at 600 nm. The biofilm and the bacteria still attached were labeled with crystal violet solution for 20 min. After rinsing, the quantity of crystal violet remaining on the biofilms was assayed, after extraction, also with a measurement of OD at 600 nm.

[7] = tested on: normal human keratinocytes (NHK); test: DNA Microarray on NHK culture; type: cell-based; conditions: 9 ppm, 24 hours, confluent NHKs
Description: 1.2—DNA Microarray-Technology NHK Culture Principle: the peptide according to the invention at 9 ppm is brought into contact for 24 hours with confluent NHKs (versus control case). Then the NHKs layers are rinsed, and the cells are crushed to extract their mRNA. These mRNAs are then converted into DNA sequences which are analyzed after deposition on DNA chips and amplification by a method similar to qRT-PCR (Real-time Quantitative Reverse Transcription Polymerase Chain Reaction). The mRNA variations due to the peptide are compared to the control case (the solvent of the peptide). The results are expressed as an expression ratio between the treated case and the control case. A ratio greater than 2 is considered to be induction of gene expression ([…]).

## palmitoyl-lysyl-threonyl-serine-lysyl-serine (Palmitoyl-KTSKS-OH; SMILES CCCCCCCCCCCCCCCC(=O)N[C@@H](CCCCN)C(=O)N[C@H](C(=O)N[C@@H](CO)C(=O)N[C@@H](CCCCN)C(=O)N[C@@H](CO)C(=O)O)[C@@H](C)O) [Pal-KTSKS]
P. acnes [1]; 6 ppm
  Delay in P. acnes growth versus vehicle: +5 h
  Time (in hour) to reach OD600 nm = 0.5: 48.8 h
P. acnes [1]; 9 ppm
  Delay in P. acnes growth versus vehicle: +11 h
  Time (in hour) to reach OD600 nm = 0.5: 55.0 h
P. acnes [1]; 12 ppm
  Delay in P. acnes growth versus vehicle: +43 h
  Time (in hour) to reach OD600 nm = 0.5: 87.3 h
[2]; 6 ppm
  Secretion of hyaluronic acid, Variation %/non treated cells: +33%; p < 0.01
[2]; 8 ppm
  Secretion of hyaluronic acid, Variation %/non treated cells: +42%; p < 0.01
[2]; 10 ppm
  Secretion of hyaluronic acid, Variation %/non treated cells: +62%; p < 0.01
[2]; 15 ppm
  Secretion of hyaluronic acid, Variation %/non treated cells: +107%; p < 0.01
[3]
  Drop in adhesion of P. acnes: more than 83%
HaCaTs; With P. acnes (Reference 2), 5 ppm of peptide
  Keratinocyte migration, variation compared to the control: −49.67%
HaCaTs; With P. acnes (Reference 2), 7 ppm of peptide
  Keratinocyte migration, variation compared to the control: −66.15%
HaCaTs; Without P. acnes, 5 ppm of peptide
  Keratinocyte migration, variation compared to the control: −3% (nsd)
HaCaTs; Without P. acnes, 7 ppm of peptide
  Keratinocyte migration, variation compared to the control: −0.36% (nsd)
P. acnes [4]; 6 ppm
  Reduction of the biofilm formed at 72 hours vs control (biofilm stability): 89%
P. acnes [4]; 12 ppm
  Reduction of the biofilm formed at 72 hours vs control (biofilm stability): 93%
P. acnes [5]
  Persistent effect on P. acnes growth once the peptide is removed: no persistent effect
[6]; 6 ppm
  Formation of the biofilm by P. acnes, variation vs control: −98%
[6]; 12 ppm
  Formation of the biofilm by P. acnes, variation vs control: −99%
[7]
  Expressed gene ABHD5 (1-acylglycerol-3-phosphate O-acyltransferase): variation compared to the control: ×2.14
  Expressed gene ANXA1 (Annexin A1): variation compared to the control: ×3.05
  Expressed gene AQP5 (Aquaporin 5): variation compared to the control: ×3.11
  Expressed gene CALML5 (Calmodulin-like protein-5): variation compared to the control: ×10.73
  Expressed gene CERS3 (Ceramide synthase 3): variation compared to the control: ×2.38
  Expressed gene CGNL1 (Cingulin-like protein-1): variation compared to the control: ×26.40
  Expressed gene CLDN7 (Claudin): variation compared to the control: ×7.24
  Expressed gene CLDN23 (Claudin): variation compared to the control: ×2.69
  Expressed gene CRNN (Cornulin): variation compared to the control: ×258.60
  Expressed gene DEFB1 (Beta-1-defensin): variation compared to the control: ×4.48
  Expressed gene DEFB103B (Human beta defensin-3): variation compared to the control: ×337.87
  Expressed gene DMKN (Dermokin): variation compared to the control: ×3.58
  Expressed gene ELOVL4 (3-keto acyl-CoA synthase): variation compared to the control: ×5.06
  Expressed gene FLG2 (Filaggrine-2): variation compared to the control: ×197
  Expressed gene HMOX1 (Heme Oxygenase-1): variation compared to the control: ×29.27
  Expressed gene IL37 (Interleukin-37): variation compared to the control: ×7.82
  Expressed gene IVL (Involucrin): variation compared to the control: ×8.43
  Expressed gene KLK5 (Kallikrein 5): variation compared to the control: ×2.2
  Expressed gene LCE2C: variation compared to the control: ×37.7
  Expressed gene LCE3A (Late Cornified Envelop Protein): variation compared to the control: ×306.86
  Expressed gene LCE3B: variation compared to the control: ×324.01
  Expressed gene LCE3D: variation compared to the control: ×1454.67
  Expressed gene LOR (Loricrin): variation compared to the control: ×193
  Expressed gene OCLN (Occludin): variation compared to the control: ×8.65
  Expressed gene PADI-1 (Peptidyl Arginin Deaminase): variation compared to the control: ×185.61
  Expressed gene PI3 (Elafin): variation compared to the control: ×7.73
  Expressed gene PRSS8 (Serine protease-8): variation compared to the control: ×2.74
  Expressed gene RNASE7 (RNase 7): variation compared to the control: ×40.85
  Expressed gene S100A7 (Psoriasin): variation compared to the control: ×15.73
  Expressed gene SPINK5 (Serine protease inhibitor Kazal-type 5): variation compared to the control: ×3.77
  Expressed gene SPRR1A (Small Proline Rich Region Protein): variation compared to the control: ×2.00
  Expressed gene SPRR2A: variation compared to the control: ×24.09
  Expressed gene SPRR2B: variation compared to the control: ×451.61
  Expressed gene SPRR2C: variation compared to the control: ×15.35
  Expressed gene SPRR2D: variation compared to the control: ×23.97
  Expressed gene SPRR2E: variation compared to the control: ×12.48
  Expressed gene SPRR2F: variation compared to the control: ×15.29
  Expressed gene SPRR2G: variation compared to the control: ×687.57
  Expressed gene SPRR3: variation compared to the control: ×48.62
  Expressed gene SPRR4: variation compared to the control: ×23.16
  Expressed gene TGM1 (Transglutaminase-1): variation compared to the control: ×4.66
  Expressed gene TGM5 (Transglutaminase-5): variation compared to the control: ×27.1
  Expressed gene TIMP1 (Metallopeptidase inhibitor 1): variation compared to the control: ×3.68
  Expressed gene TIMP2 (Metallopeptidase inhibitor 2): variation compared to the control: ×5.96
  Expressed gene TJP1 (Tight junction protein ZO-1): variation compared to the control: ×2.02
